Data taken from PubChem BioAssay AID1645864 (Buhrlage Lab, Dana-Farber Cancer Institute and Novartis …, 2021).
The source made the active and inactive calls.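 How the source made its calls: active means maximal inhibition of USP17 at or above 30% in the confirmation dose-response, a value not among the printed readouts; inactive means the rest.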

What follows are compounds tested against Ubiquitin carboxyl-terminal hydrolase 17-like protein 5 (Homo sapiens) (UniProt A8MUK1) (assay: ubiquitin-specific protease 17 inhibitors, concentration series, biochemical, verification of primary actives (AID 1645864)). Conditions: purified USP17, ubiquitin-rhodamine cleavage fluorescence, 3 h.
Ubiquitin carboxyl-terminal hydrolase 17-like protein 5 (Homo sapiens), sequence (A8MUK1 whole entry, looked up): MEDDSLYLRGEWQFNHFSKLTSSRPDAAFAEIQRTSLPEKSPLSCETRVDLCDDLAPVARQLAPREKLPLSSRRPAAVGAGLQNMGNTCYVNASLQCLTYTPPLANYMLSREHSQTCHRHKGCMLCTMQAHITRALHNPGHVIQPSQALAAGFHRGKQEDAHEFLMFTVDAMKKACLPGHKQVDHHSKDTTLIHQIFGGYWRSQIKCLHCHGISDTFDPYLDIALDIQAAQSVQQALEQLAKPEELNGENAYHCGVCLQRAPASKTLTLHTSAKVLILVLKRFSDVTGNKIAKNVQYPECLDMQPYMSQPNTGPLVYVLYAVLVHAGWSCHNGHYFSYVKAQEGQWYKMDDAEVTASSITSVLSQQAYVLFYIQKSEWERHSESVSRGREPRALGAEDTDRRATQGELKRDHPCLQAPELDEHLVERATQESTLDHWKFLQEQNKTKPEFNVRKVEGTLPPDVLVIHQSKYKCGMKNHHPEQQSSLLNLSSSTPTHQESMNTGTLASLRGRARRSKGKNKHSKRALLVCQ
With `Cn1c(=O)c2c(ncn2CC(=O)NC2CCCc3ccccc32)n(C)c1=O` (stereo not given) the IC50 was > 50 µM (inactive).
With `O=C(OCc1ccc(F)cc1)c1ccc2ccccc2n1` the IC50 was > 50 µM (inactive).
`Cc1nc2ccc(NC(=O)COc3ccccc3[N+](=O)[O-])cc2s1` gave an IC50 of 3.26 µM.
In the case of `CC(C)(C)N=C1Nc2ncccc2NC12CCCN(C(=O)c1ccccc1)C2` (stereo not given), the IC50 is reported as > 50 µM (inactive).
In the case of `CO/C=C/C(=O)c1cc2cnc3c(=N)cc(NC(C)=O)c([nH]1)c23`, the IC50 is reported as > 50 µM (inactive).
In the case of `COc1ccc(-c2cc(C(=O)N3CCN(c4ccc([N+](=O)[O-])cc4)CC3)[nH]n2)cc1`, the IC50 is reported as > 50 µM (inactive).
Compound `O=C(Nc1cccc2ccccc12)N1CCC(c2nc3c(nnn3Cc3ccc(F)cc3)c(=O)[nH]2)CC1` has an IC50 of 28.6 µM.
Compound `Cc1c(-c2nn3c(-c4ccco4)nnc3s2)cccc1[N+](=O)[O-]` has an IC50 of 3 µM.
`COc1cccc2c1NC(=O)C21CCN(C(=O)Nc2cccc(C)c2)CC1` showed an IC50 of 20.1 µM.
`Cc1nn(-c2ccccc2)c(C)c1C(=O)OCC(=O)Nc1cccc(Br)c1` gave an IC50 of 40.6 µM.
With `O=C(Nc1ccc2sccc2c1)c1ccc(F)cc1` the IC50 was 40.6 µM.
`Cc1sc2nc(CN3CCCC3)nc(NCCc3ccc(Cl)cc3)c2c1C` was tested, and the IC50 was > 50 µM (inactive).
`O=C(CCCCn1c(=O)c2ccccc2n(Cc2ccccc2F)c1=O)NCCc1ccccc1` gave an IC50 of 16.8 µM.
For `CCc1ccc(-n2nc(C)c3c2NC(=O)CC3C(=O)c2ccc3c(c2)OCCO3)cc1` (stereo not given), the IC50 was 27.5 µM.
For `COc1ccc2c(c1)CCc1c-2n[nH]c1C(=O)Nc1cc(C)on1`, the IC50 was 4.67 µM.
In the case of `CC1CCN(c2nc(F)c3c(c2F)S(=O)(=O)CCN3Cc2cccnc2)CC1`, the IC50 is reported as > 50 µM (inactive).
`Cc1ccc2c(=O)c3c([nH]c2c1C)CCN(CC(=O)NCc1ccc2c(c1)OCO2)C3` was tested, and the IC50 was 32.8 µM.
`Cc1c(C)c2ccc(OCC(=O)NCc3ccncc3)c(C)c2oc1=O` gave an IC50 of 41.8 µM.
For `O=C1c2ccccc2NC2(C(=O)Nc3ccc(Br)cc32)N1c1ccccc1` (stereo not given), the IC50 was > 50 µM (inactive).
With `O=C(Nc1ccc(F)c(Cl)c1)c1ccc(N2CCCCS2(=O)=O)cc1Cl` the IC50 was > 50 µM (inactive).
In the case of `Cc1ccc2c(c1)c(=O)c(C(=O)c1ccccc1)cn2CC(=O)Nc1ccccc1`, the IC50 is reported as 9.87 µM.
`Clc1ccc(C[n+]2cc(-c3ccc(Cl)cc3)n3c2CCC3)cc1` was tested, and the IC50 was > 50 µM (inactive).
Work on `Cn1c2ccccc2c(=O)c2c(=O)n(Cc3ccccc3)c(-c3ccco3)nc21` yielded an IC50 of 1.55 µM.
For `O=C(CCCCn1c(=O)[nH]c2ccccc2c1=O)Nc1cccc(Cl)c1`, the IC50 was 19.4 µM.
`O=C(NCc1ccc(CN2CCCC2)cc1)c1cc2ccccc2[nH]c1=O` was tested, and the IC50 was 28.4 µM.
With `Cc1cccc(C(=O)Nc2cccc(SC(C(=O)Nc3ccc(O)c(C(=O)O)c3)c3ccccc3)c2)c1` (stereo not given) the IC50 was 11.5 µM.
For `CCn1cnc2c1c(=O)n(CC(=O)NCc1ccccc1Cl)c(=O)n2Cc1ccccc1`, the IC50 was > 50 µM (inactive).
With `CCn1c(CNc2ccc(Cl)cc2)nnc1SCC(=O)Nc1ccccc1` the IC50 was > 50 µM (inactive).
`Cc1ccc(NC(=O)CNC(=O)c2cc3ccccc3o2)cc1` was tested, and the IC50 was 14.6 µM.
With `Cc1cc(/C=C2/C(=N)N3C(c4ccccc4)=CSC3=NC2=O)c(C)n1-c1ccc2ccccc2c1` the IC50 was > 50 µM (inactive).
Compound `CSc1ccccc1C(=O)Nc1sc2c(c1C(N)=O)CCC(C)C2` (stereo not given) has an IC50 of 2.35 µM.
`CC(C)C(=O)Nc1ccc(N2CCN(Cc3ccc(F)cc3)C2=O)nc1` was tested, and the IC50 was 26.4 µM.
For `COc1cccc2c1C(=O)c1ccc3c(c1C2=O)C(=O)CC(C)(O)C3` (stereo not given), the IC50 was 36.4 µM.
Work on `O=[N+]([O-])c1ccc(N2CCN(c3ncnc4c3[nH]c3ccc(F)cc34)CC2)cc1` yielded an IC50 of 0.247 µM.
For `O=c1c2c(ccn1Cc1cc(F)ccc1F)ccn2Cc1cccnc1`, the IC50 was > 50 µM (inactive).
`O=C(COC(=O)c1ccc2ncsc2c1)Nc1ccccc1F` was tested, and the IC50 was > 50 µM (inactive).
For `O=C(c1ccsc1)N1CCC2(C1)Nc1cccnc1NC2=NC1CCCC1` (stereo not given), the IC50 was > 50 µM (inactive).
With `COc1ccc(CCNC(=O)c2cc(C3CC3)nc3c2cnn3C(C)C)cc1` the IC50 was > 50 µM (inactive).
In the case of `Cc1ccc(CN2C(=O)c3cc4ccccc4n3CC2(C)C(=O)NCc2ccccc2)o1` (stereo not given), the IC50 is reported as 26.7 µM.
With `Cc1ccccc1Cc1nc(-c2ccc(=O)[nH]c2)no1` the IC50 was > 50 µM (inactive).
`O=c1sc2ccccc2c(=O)n1Cc1cccc(C(F)(F)F)c1` was tested, and the IC50 was > 50 µM (inactive).
In the case of `C=Cc1ccc(Cn2cccc(S(=O)(=O)N3CCCC3)c2=O)cc1`, the IC50 is reported as 3.92 µM.
For `CC(=O)Nc1cc(-c2cccc(O)c2)cn2c(-c3cnn(C)c3)cnc12`, the IC50 was 3.57 µM.
Compound `CCn1c(COc2cccc(C(F)(F)F)c2)nnc1SCc1ccc(Cl)cc1` has an IC50 of 43.4 µM.
`Cc1cccc(-c2nc3n(CC(=O)Nc4ccc(Cl)cc4)c(C)cc(=O)n3n2)c1` was tested, and the IC50 was 0.335 µM.
`COc1ccc(NC(=O)c2nnn(-c3ccccc3F)c2C)cc1OC` was tested, and the IC50 was > 50 µM (inactive).
`COc1ccc(Cl)cc1N1C(=O)[C@H]2[C@@H](C1=O)[C@]1(C(=O)Nc3c(C)cc(C)cc31)N1CCC[C@@H]21` was tested, and the IC50 was > 50 µM (inactive).
`Cn1cc(NC(=O)Nc2cccc3ccccc23)c2ccccc21` showed an IC50 of 32.7 µM.
In the case of `Oc1cc(OCc2cccc(C(F)(F)F)c2)ccc1-c1ccn[nH]1`, the IC50 is reported as 21.2 µM.
Work on `O=C(Cc1noc2ccccc12)NCC(=O)Nc1ccc(Cl)cc1` yielded an IC50 of 18.1 µM.
Compound `CC1=C(C)C(c2c(-c3ccc(C)cc3)[nH]c3ccccc23)N(C(C)(C)C)C1=O` (stereo not given) has an IC50 of 2.05 µM.
Compound `Cc1nn(Cc2ccccc2)c2sc(C(=O)Nc3nc4ccccc4[nH]3)cc12` has an IC50 of 23.5 µM.
In the case of `CC1CCc2c(sc3ncnc(OCc4cccc([N+](=O)[O-])c4)c23)C1` (stereo not given), the IC50 is reported as > 50 µM (inactive).
In the case of `Cc1cc(C)c(O)c(-c2cc(C(=O)Nc3ccccc3Cl)[nH]n2)c1`, the IC50 is reported as 1.75 µM.
With `COc1ccc(C(=O)CSc2nnc(-c3cccnc3)n2-c2ccccc2)cc1` the IC50 was > 50 µM (inactive).
In the case of `CNC(=O)c1cc2nc(N(C)C)n(-c3ccc(F)cc3)c2s1`, the IC50 is reported as > 50 µM (inactive).
`O=C(/C=C/c1c(F)cccc1Cl)N1CCc2ccccc2C1` was tested, and the IC50 was 34.7 µM.
Work on `O=C(NCCc1ccco1)c1ccc(N2CCOc3ccccc32)s1` yielded an IC50 of 15.4 µM.
With `O=C(NCc1ccc(-c2nc3cnccc3o2)cc1)c1ccccc1F` the IC50 was 18.8 µM.
`O=C(Nc1cc(Cl)cc(Cl)c1)c1csnn1` showed an IC50 of 22.4 µM.
`COc1ccc(NC(=O)CN2C(=O)c3ccccc3Sc3ccc(C(=O)N4CCCC4)cc32)c(OC)c1` showed an IC50 of 17.7 µM.
With `COC(=O)c1cc2c(ccn2C)n1CC(=O)NC1CC1` the IC50 was > 50 µM (inactive).
For `Cc1c(C(=O)Nc2ccc(-c3nnc4n3CCCCC4)cc2)oc2c1ccc1ccccc12`, the IC50 was > 50 µM (inactive).
For `O=C(CCn1c(=O)c2ccccc2n(Cc2cc(=O)n3ccccc3n2)c1=O)NCCc1ccc(Cl)cc1`, the IC50 was 31.5 µM.
Compound `CN(C)C(=O)CSc1nnc(-c2cccc(Cl)c2)n1-c1ccc(Cl)c(C(F)(F)F)c1` has an IC50 of 2.81 µM.
With `COc1cccc(N2CCN(C(=O)c3cc(NC(C)=O)cc4nc(C)ccc34)CC2)c1` the IC50 was > 50 µM (inactive).
With `Cc1ccc(C(=O)Nc2cc3c4c(c2)CC(=O)N4CCC3)cc1` the IC50 was > 50 µM (inactive).
`Nc1c(-c2ccc(Cl)cc2)cnc2cc(-c3ccc(Cl)c(Cl)c3)nn12` was tested, and the IC50 was 3.37 µM.
`Cc1cccc(NC(=O)CN2C(=O)CC(c3ccccc3)S(=O)(=O)c3ccccc32)c1C` (stereo not given) gave an IC50 of 25.3 µM.
Compound `CCC(=O)N1c2ccccc2NC2=C(C(=O)CC(c3ccccc3OCc3ccccc3)C2)C1c1ccccc1` (stereo not given) has an IC50 of 4.4 µM.
For `COC(=O)C1C(c2ccc(Cl)cc2Cl)C2(C(=O)c3ccccc3C2=O)C2C=Cc3ccccc3N12` (stereo not given), the IC50 was > 50 µM (inactive).
Work on `O=C(CC1C(=O)N(Cc2ccccc2)c2nc3ccccc3n21)NCCc1ccccc1` (stereo not given) yielded an IC50 of 18.7 µM.
With `COc1ccc2nc(Nc3nc(-c4cnc(N5CCOCC5)nc4C)cc(=O)[nH]3)nc(C)c2c1` the IC50 was > 50 µM (inactive).
For `CCOc1ccc2nc(NC(=O)C3CCN(S(=O)(=O)c4ccc5c(c4)CC(C)N5C(C)=O)CC3)sc2c1` (stereo not given), the IC50 was > 50 µM (inactive).
With `CCCCCC(=O)N1c2ccccc2NC2=C(C(=O)CC(c3ccc(C(C)(C)C)cc3)C2)C1c1ccncc1` (stereo not given) the IC50 was 4.7 µM.
`CCc1noc(-c2ccc(OCC(=O)Nc3ccc(C)cc3C)cc2)n1` showed an IC50 of 30.5 µM.
For `Cc1cccc(C(=O)N2CCc3cc(-c4nc(NC(=O)CN5CCc6ccccc6C5)sc4C)ccc32)c1`, the IC50 was > 50 µM (inactive).
Compound `Cc1cccc(S(=O)(=O)N2CCc3nc4ccccc4n3CC2)c1` has an IC50 of 24.4 µM.
Compound `COC1=C(C2=C(OC)C(=O)c3cc4c(c(O)c3C2=O)C(=O)OC(C)C4)C(=O)c2c(cc3c(c2O)C(=O)OC(C)C3)C1=O` (stereo not given) has an IC50 of 0.0977 µM.
`Cc1cc(=O)n2c3c(c4c(cc13)c(CO)cc(=O)n4C)OC2` showed an IC50 of 9.79 µM.
In the case of `Cc1cccc(COc2ccc(C3SCC(=O)Nc4n[nH]c(C)c43)cc2)c1` (stereo not given), the IC50 is reported as 20.6 µM.
`Nc1ccccc1SC(CC(=O)c1ccc(Cl)cc1)c1ccsc1` (stereo not given) was tested, and the IC50 was > 50 µM (inactive).
`O=C(CSc1nc2cc(S(=O)(=O)Nc3ccccc3Cl)ccc2o1)Nc1ccc(N2CCOCC2)cc1` was tested, and the IC50 was 48 µM.
In the case of `Cc1cccc(CNC(=O)C2CCCN(S(=O)(=O)Cc3ccc(F)cc3)C2)c1` (stereo not given), the IC50 is reported as 19.1 µM.
In the case of `O=S1(=O)CCN(Cc2cccnc2)c2c(F)nc(N3CCOCC3)c(F)c21`, the IC50 is reported as > 50 µM (inactive).
Work on `O=c1c2cnc(N3CCOCC3)nc2ccn1CCc1ccccc1` yielded an IC50 of 18 µM.
`Cc1ccc(-c2nc(Cn3cnc4ccccc4c3=O)cs2)cc1` gave an IC50 of 7.32 µM.
With `c1ccc(-n2nnc(-c3noc(-c4cccnc4)n3)c2-c2ccncc2)cc1` the IC50 was 27.9 µM.
With `CCOc1cc(C2C3=C(CC(C)(C)CC3=O)Nc3onc(C)c32)ccc1O` (stereo not given) the IC50 was 39.7 µM.
For `COc1ccc(-c2cc(-c3ccccc3)nc(SCC(N)=O)c2C#N)cc1OC`, the IC50 was 1.61 µM.
With `FC(F)(F)c1cccc(Nc2nnc(-c3cccnc3)s2)c1` the IC50 was 5.64 µM.
`O=C(Nc1ccc2c(c1)OCCO2)c1cc(CN2CCCC2)on1` was tested, and the IC50 was > 50 µM (inactive).
For `Fc1ccc(Cc2nc(-c3ccc4nncn4c3)no2)cc1`, the IC50 was > 50 µM (inactive).
`Cc1ccc2nc(N3CCc4ccccc4C3)c3nncn3c2c1` was tested, and the IC50 was > 50 µM (inactive).
With `COc1ccc(NC(=O)c2ccc(-n3nnnc3SC)cc2)cc1Cl` the IC50 was > 50 µM (inactive).
With `Cc1cc(C)cc(-n2cnc3cc(C(=O)NCCC4=CCCCC4)ccc32)c1` the IC50 was > 50 µM (inactive).
Work on `Cc1nc(C(=O)Nc2cccc(Cl)c2Cl)nn1-c1cc(Cl)cc(Cl)c1` yielded an IC50 of 0.135 µM.
Compound `CC1CCN(S(=O)(=O)c2ccc(C(=O)Nc3ccc(S(N)(=O)=O)cc3)cc2)CC1` has an IC50 of 38.3 µM.
`COc1ccc(-c2cnnn2-c2ccc(NC(=O)c3c(F)cccc3F)cc2)cc1OC` was tested, and the IC50 was > 50 µM (inactive).
For `O=C(COc1nsnc1N1CCOCC1)Nc1ccc(F)c(F)c1`, the IC50 was > 50 µM (inactive).
